Non-standard residues stand in square brackets, D forms with d. Residues, ends and D or L forms follow the SMILES beside them. Dolaproine = CO[C@@H]([C@@H]1CCCN1)[C@@H](C)C(=O)O; Dil = CC[C@H](C)[C@H](NC)[C@@H](CC(=O)O)OC; NMeV = CN[C@H](C(=O)O)C(C)C
Experiments:
KB cancer cells [1] = assay: In vitro analysis of protein-drug conjugate, KB; assay type: cell-based; details: 96 hours, read-out: KB cell IC50
Protocol: (§1) KB cancer cells were collected and seeded in 24-well plates at a density of 30,000 cells per well in 2 mL of medium, and cultured for 24 hours. Then, the serial dilutions of compound C-1 obtained in Example 108 were treated from 30 nM to 0.0096 nM, the serial dilutions of compound C-2 obtained in Example 109 were treated from 1000 nM to 0.32 nM, serial dilutions of the compound C-3 obtained in Example 110 and the compound C-7 obtained in Example 114 were treated from 25 nM to 0.0016 nM, and serial dilutions of the drug MMAF-OMe were treated from 10 nM to 0.0097 nM. The serial dilutions of compounds C-5 and C-6 obtained in Example 112 and Example 113 were treated from 100 nM to 0.0001 nM, and the serial dilutions of drug seco-DUBA were treated from 100 nM to 0.001 nM. […] The formazans formed by reduction of the MTT dye by mitochondrial oxidoreductases in the living cells were dissolved in DMSO, and measured using the absorbance at 550 nm.
(§2) KB, SKBR-3, BT-474, NCI-N87 cancer cells were seeded in 96-well plates at a density of 2,000 to 8,000 cells per well in 100 μL of medium, and cultured for 24 hours. […] Experiments were performed in a similar manner to Test Example 3 to quantify living cells 96 hours later, and results are shown in Tables 4 and 5 below.

KB cancer cells [2] = assay: cells; assay type: cell-based; details: MTT; 72 hours, 96 hours, or 144 hours of incubation; read-out: KB cell IC50
Protocol: KB cancer cells were collected and seeded in 24-well plates at a density of 30,000 cells per well in 2 mL of medium, and cultured for 24 hours. Then, the serial dilutions of compound C-1 obtained in Example 108 were treated from 30 nM to 0.0096 nM, the serial dilutions of compound C-2 obtained in Example 109 were treated from 1000 nM to 0.32 nM, serial dilutions of the compound C-3 obtained in Example 110 and the compound C-7 obtained in Example 114 were treated from 25 nM to 0.0016 nM, and serial dilutions of the drug MMAF-OMe were treated from 10 nM to 0.0097 nM. The serial dilutions of compounds C-5 and C-6 obtained in Example 112 and Example 113 were treated from 100 nM to 0.0001 nM, and the serial dilutions of drug seco-DUBA were treated from 100 nM to 0.001 nM. Serial dilutions of the compounds C-4 and C-9 obtained in Example 111 and Example 116 were treated from 1000 nM to 0.001 nM, and the serial dilutions of drug CBI dimer were treated by from 10 nM to 0.00001 nM. Serial dilutions of the compound C-8 obtained in Example 115 and the drug CBI-indole were treated from 100 nM to 0.0001 nM. After 72 hours, 96 hours, or 144 hours of incubation, 0.2 mL of 3-(4,5-dimethylthiazol-2-yl)-2,5-diphenyltetrazolium bromide (MTT) dye, dissolved in PBS buffer solution (5 mg/mL), was added to each well of the plates. The formazans formed by reduction of the MTT dye by mitochondrial oxidoreductases in the living cells were dissolved in DMSO, and measured using the absorbance at 550 nm.

[3] = Chemical stability in PBS; assay type: physicochemical; details: PBS (pH 7.4), room temperature, light blocked, 7 days incubation
Protocol: The compound A-1 obtained by Example 58 was dissolved in DMSO, and mixed with PBS (pH 7.4) buffer solution to prepare a solution having a concentration of 500 μM (5% DMSO). MPS used as a standard material was prepared as a solution to have a concentration of 500 μM in PBS buffer solution. 420 μL of the buffer solution, and 140 μL of the compound A-1 solution and 140 μL of MPS solution were mixed, thereby preparing a reaction mixture in a total amount of 700 μL. The reaction mixture was incubated at room temperature while blocking the light. The reaction mixture was aliquoted on 0 day before the reaction and on 1 day, 2 days, 4 days, and 7 days after the reaction, wherein each aliquot amount was 70 μL. Then, the remaining compound A-1, MPS, and liberated tyrosine were quantitated by HPLC analysis.

[4] = Plasma stability test, human; assay type: in vitro ADME; details: 37° C., up to 7 days, 300 μM
Protocol: (§3) The compound A-1 obtained in Example 58 and MPS used as a standard material were dissolved in DMSO to make a concentration of 60 mM. Then, each of human plasma (Biochemed 752R-SC-PMG), mouse plasma (Biochemed 029-APSC-MP), rat plasma (Biochemed 031-APSC-MP), and beagle dog plasma (Biochemed 013-APSC-MP) were mixed with the compound and MPS to make a final concentration of 300 μM (final 0.5% DMSO). The resulting plasma mixtures were incubated at 37° C. water bath. Aliquots were taken before the reaction and on 1 day, 2 days, 4 days, and 7 days after the reaction, wherein each aliquot was 300 μL. To complete the reaction, two-fold volumes of acetonitrile was added, followed by brief vortexing, and centrifugation for plasma protein precipitation. Each supernatant obtained after centrifugation was collected and analyzed by HPLC. The compound A-1 was detected and quantitated in the mouse, rat, beagle dog, and human plasma for up to 7 days (>95%).

[5] = target: T1, Escherichia coli β-glucuronidase (Escherichia coli, UniProt P05804); assay: Enzymatic cleavage assay, Method 3; assay type: biochemical; details: Escherichia coli β-glucuronidase (Sigma G7396) in PBS buffer, PBS pH 7.4, 37° C., HPLC, read-out: TG release t1/2(min)
T1 construct: purchased Sigma G7396
T1 sequence (P05804 whole entry): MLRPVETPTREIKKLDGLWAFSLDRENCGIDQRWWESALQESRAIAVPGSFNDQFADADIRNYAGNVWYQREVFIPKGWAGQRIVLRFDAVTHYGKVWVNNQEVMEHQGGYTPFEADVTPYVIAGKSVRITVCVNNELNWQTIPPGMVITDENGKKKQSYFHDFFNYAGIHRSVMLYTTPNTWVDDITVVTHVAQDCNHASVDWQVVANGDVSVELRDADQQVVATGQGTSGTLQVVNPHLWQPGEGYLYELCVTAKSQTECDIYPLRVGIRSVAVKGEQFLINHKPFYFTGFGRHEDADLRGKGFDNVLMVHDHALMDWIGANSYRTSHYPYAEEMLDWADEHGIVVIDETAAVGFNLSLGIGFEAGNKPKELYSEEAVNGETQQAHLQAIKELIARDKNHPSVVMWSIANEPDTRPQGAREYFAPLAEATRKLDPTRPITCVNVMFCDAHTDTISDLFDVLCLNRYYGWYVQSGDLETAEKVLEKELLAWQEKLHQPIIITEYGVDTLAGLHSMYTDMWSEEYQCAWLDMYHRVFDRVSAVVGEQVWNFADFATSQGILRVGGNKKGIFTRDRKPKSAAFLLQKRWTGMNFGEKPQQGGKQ
Protocol: Method 3) Escherichia coli β-glucuronidase
The compounds A-1 and A-5 of the present invention were dissolved in DMSO, and mixed with PBS buffer solution to prepare a solution having a concentration of 500 μM (5% DMSO). MPS used as a standard material was prepared as a solution to have a concentration of 500 μM in PBS buffer solution. […] Then, 14 μL of enzyme solution (1 mg/mL) was added thereto, thereby preparing an enzyme reaction solution in a total amount of 700 μL. The reaction mixture was incubated at 37° C. Escherichia coli β-glucuronidase enzyme (Sigma G7396) was used in the reaction mixture.

[6] = Plasma stability test, rat; assay type: in vitro ADME; details: 37° C., up to 7 days, 300 μM
Protocol: as §3

[7] = Plasma stability test, dog; assay type: in vitro ADME; details: beagle dog plasma, 37° C., up to 7 days, 300 μM
Protocol: as §3

[8] = Plasma stability test, mouse; assay type: in vitro ADME; details: 37° C., up to 7 days, 300 μM
Protocol: as §3

NCI-N87 cells = assay: In vivo efficacy, tumor xenograft; design: species or system mice; details: male BALB/c nu/nu, single i.v. injection day 0, 2 mg/kg
Protocol: In vivo efficacy of antibody-drug conjugates of the invention was measured by tumor xenograft studies in mice. Male BALB/c nu/nu were injected subcutaneously in the right flank with suspensions of 1×10^6 of NCI-N87 cells respectively in PBS. Mice were randomized into study groups when tumors reached approximately 100 mm^3. T-DM1 (2 mg/kg), D-1-AB, D-2-AB, D-8-AB, and D-18-AB conjugates (0.5 mg/kg or 2 mg/kg) were given i.v. (single injection on treatment day 0). All treatment groups consisted of 6 to 10 animals per group, and tumor size was monitored twice weekly using caliper measurement. The tumor mass was calculated as volume=(width×width×length)/2.

NCI-N87 cancer cells = assay: In vitro analysis of antibody-drug conjugate, NCI-N87; assay type: cell-based; details: 96 hours
Protocol: as §1, §2

BT-474 cancer cells = assay: In vitro analysis of antibody-drug conjugate, BT-474; assay type: cell-based; details: 96 hours
Protocol: as §1, §2

SKBR-3 cancer cells = assay: In vitro analysis of antibody-drug conjugate, SKBR-3; assay type: cell-based; details: 96 hours
Protocol: as §1, §2

[9] = target: Escherichia coli β-galactosidase (Escherichia coli, UniProt P00722); assay: in vitro; details: recombinant enzyme, pH 7.4
Chain of Escherichia coli β-galactosidase (P00722 2-1024): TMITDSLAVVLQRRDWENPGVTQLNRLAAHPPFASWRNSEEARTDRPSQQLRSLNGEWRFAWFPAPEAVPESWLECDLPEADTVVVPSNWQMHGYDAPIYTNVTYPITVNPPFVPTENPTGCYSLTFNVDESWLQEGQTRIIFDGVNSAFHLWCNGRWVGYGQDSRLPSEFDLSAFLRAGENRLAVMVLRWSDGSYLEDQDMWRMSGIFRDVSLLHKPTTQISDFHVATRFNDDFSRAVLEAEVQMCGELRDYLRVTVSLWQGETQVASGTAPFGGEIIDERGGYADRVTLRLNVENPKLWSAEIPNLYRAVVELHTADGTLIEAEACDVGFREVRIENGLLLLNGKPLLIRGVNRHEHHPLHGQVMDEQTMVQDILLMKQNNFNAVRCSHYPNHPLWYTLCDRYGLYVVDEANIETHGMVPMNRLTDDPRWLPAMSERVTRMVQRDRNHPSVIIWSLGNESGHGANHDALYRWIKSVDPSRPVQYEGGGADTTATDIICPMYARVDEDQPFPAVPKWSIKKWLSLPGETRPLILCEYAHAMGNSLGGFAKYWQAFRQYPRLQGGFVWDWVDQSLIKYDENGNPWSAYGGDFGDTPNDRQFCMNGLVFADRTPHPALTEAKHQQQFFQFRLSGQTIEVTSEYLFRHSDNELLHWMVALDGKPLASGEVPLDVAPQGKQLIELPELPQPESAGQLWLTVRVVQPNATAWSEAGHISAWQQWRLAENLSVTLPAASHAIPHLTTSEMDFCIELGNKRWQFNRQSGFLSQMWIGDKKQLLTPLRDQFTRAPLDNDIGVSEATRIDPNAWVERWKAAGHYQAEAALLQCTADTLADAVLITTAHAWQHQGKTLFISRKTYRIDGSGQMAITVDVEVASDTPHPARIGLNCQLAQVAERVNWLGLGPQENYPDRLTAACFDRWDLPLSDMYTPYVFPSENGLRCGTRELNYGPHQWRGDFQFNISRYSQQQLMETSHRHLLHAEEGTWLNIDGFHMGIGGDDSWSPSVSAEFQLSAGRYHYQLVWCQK
Protocol: Method 1. Escherichia coli β-galactosidase
MPS used as a standard material was dissolved in PBS buffer solution to make 500 uM solution. […] This was followed by the addition of enzyme solution (14 μL of 1 mg/mL). When comparing with human β-galactosidase, 21 μL of enzyme solution (1 mg/mL) was added to achieve the same molar concentration, and the compound of the present invention and MPS each having an amount of 140 μL and […] of the buffer solution (pH 7.4) were mixed. The resulting reaction mixture was incubated at 37° C. Escherichia coli β-galactosidase enzyme (Sigma G4155) was used in the reaction mixture. The enzyme reaction solution was aliquoted at 0 min before the reaction and at a predetermined time after the reaction, respectively, wherein each aliquot was 70 μL. Then, the remaining compound of the present invention or MPS, and a material liberated by the enzyme reaction were quantitatively analyzed by HPLC.

[10] = tested on: Escherichia coli β-galactosidase + β-glucuronidase; assay: Enzymatic cleavage assay, Method 4; assay type: biochemical; details: PBS pH 7.4, 37° C., HPLC, read-out: TG release t1/2(min)
Protocol: Method 4 Escherichia coli β-Galactosidase+β-Glucuronidase
The compound A-5 of the present invention was dissolved in DMSO, and mixed with PBS buffer solution to prepare a solution having a concentration of 500 μM (5% DMSO). MPS used as a standard material was prepared as a solution to have a concentration of 500 μM in PBS buffer solution. […] Then, 14 μL of 1 mg/mL of β-galactosidase (Sigma G4155) and 14 μL of 1 mg/mL of β-glucuronidase (Sigma G7396) were added thereto, thereby preparing an enzyme reaction mixture in a total amount of 700 μL. The reaction mixture was incubated at 37° C.

In the case of `CC[C@H](C)[C@@H]([C@@H](CC(=O)N1CCC[C@H]1[C@H](OC)[C@@H](C)C(=O)N[C@@H](Cc1ccccc1)C(=O)OC)OC)N(C)C(=O)[C@@H](NC(=O)[C@@H](NC)C(C)C)C(C)C` [MMAF-OMe] (H-[NMeV]V[Dil][Dolaproine]F-OMe), the IC50 (KB cancer cells [1]; values marked * (asterisk not explained)) is reported as 160 pM, the IC50 (KB cancer cells [1]; values without asterisk) is reported as 440 pM and the IC50 (KB cancer cells [2]) is reported as 350 ± 70 pM.

In the case of `CC(C)(C)OC(=O)NC(Cc1ccc(OS(=O)(=O)Oc2ccccc2O[C@@H]2O[C@H](CO)[C@H](O)[C@H](O)[C@H]2O)cc1)C(=O)O` (stereo partly shown) [Compound A-1], the “compound present (remaining)” value [3] is reported as greater than 95%, the “compound detected and quantitated in plasma” value [4] is reported as greater than 95% and the half-life at 100 μM [5] is reported as 0.43 ± 0.11 min. The “compound detected and quantitated in plasma” value [6] was greater than 95%, the “compound detected and quantitated in plasma” value [7] was greater than 95% and the “compound detected and quantitated in plasma” value [8] was greater than 95%.

With T-DM1 the “activity compared with the conjugates of the invention” value (NCI-N87 cells) was “less active”, the IC50 (NCI-N87 cancer cells) was 0.02 nM and the IC50 (BT-474 cancer cells) was 0.18 nM. It also gave an IC50 (SKBR-3 cancer cells) of 0.02 nM.

For `CC(C)(C)OC(=O)N[C@H](Cc1ccc(OS(=O)(=O)Oc2ccccc2O[C@@H]2O[C@H](COC3O[C@H](C(=O)O)[C@@H](O)[C@H](O)[C@H]3O)[C@H](O)[C@H](O)[C@H]2O)cc1)C(=O)O` (stereo partly shown) [Compound A-5], the half-life at 100 μM [9] was less than 5 min, the half-life at 100 μM [10] was less than 5 min and the half-life at 100 μM [5] was less than 5 min.

Reference: US12479927B2, “Compounds comprising cleavable linker and uses thereof” (priority 2017, dated 2025)
